Measured values as given in patent US11944623B2, “Modulators of Kv3 channels to treat pain” (Autifony Therapeutics Limited, priority 2015, dated 2024).

Biological target: T1, human Kv3.1 channels (Homo sapiens, UniProt P48547)
T1 construct: expressed in transfected cells; host or cells: CHO/Gam/E1A-clone22 (CGE22) cells, transient BacMam transduction
T1 sequence (P48547 1-511): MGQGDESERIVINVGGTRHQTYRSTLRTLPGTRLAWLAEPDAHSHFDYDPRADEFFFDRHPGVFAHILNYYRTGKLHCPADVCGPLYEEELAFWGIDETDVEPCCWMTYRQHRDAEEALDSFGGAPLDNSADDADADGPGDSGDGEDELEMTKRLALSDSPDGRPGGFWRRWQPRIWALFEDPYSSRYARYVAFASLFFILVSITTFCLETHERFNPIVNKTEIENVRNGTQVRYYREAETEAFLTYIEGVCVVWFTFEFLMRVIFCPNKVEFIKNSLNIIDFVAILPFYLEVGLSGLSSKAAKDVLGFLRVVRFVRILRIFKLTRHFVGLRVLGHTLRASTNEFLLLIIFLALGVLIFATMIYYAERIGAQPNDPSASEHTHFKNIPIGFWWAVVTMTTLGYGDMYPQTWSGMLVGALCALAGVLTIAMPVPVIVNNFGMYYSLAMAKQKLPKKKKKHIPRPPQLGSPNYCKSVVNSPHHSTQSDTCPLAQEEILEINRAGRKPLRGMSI
Assay: hKv3.1 IonWorks Quattro whole-cell current potentiation assay
Assay type: cell-based
Conditions: potency as indicated by an EC50 value
Excerpt: The ability of the compounds of the invention to modulate the voltage-gated potassium channel subtypes Kv3.3/Kv3.2/Kv3.1 may be determined using the following assay. Analogous methods may be used to investigate the ability of the compounds of the invention to modulate other channel subtypes.
To assess compound effects on human Kv3.1 channels (hKv3.1), CHO/Gam/E1A-clone22 alias CGE22 cells were transduced using a hKv3.1 BacMam reagent. This cell line was designed to be an improved CHO-K1-based host for enhanced recombinant protein expression as compared to wild type CHO-K1. The cell line was generated following the transduction of CHO-K1 cells with a BacMam virus expressing the Adenovirus-Gam1 protein and selection with Geneticin-G418, to generate a stable cell line, CHO/Gam-A3. CHO/Gam-A3 cells were transfected with pCDNA3-E1A-Hygro, followed by hygromycin-B selection and FACS sorting to obtain single-cell clones. […]
Experiments were conducted at room temperature using IonWorks Quattro™ planar array electrophysiology technology (Molecular Devices Corp.) with PatchPlate™ PPC. […] Planar electrode hole resistances (Rp) were determined by applying a 10 mV voltage step across each well. […]
Test pulses protocol may be performed in the absence (pre-read) and presence (post-read) of the test compound. […]

activity between modulation of Kv3.1 and Kv3.2 channels: comparable activity
SMILES: Cc1ccc(Oc2ccc(-n3c(C)n[nH]c3=O)cn2)c2c1OCC21CC1 [Compound 3, 5-methyl-4-{6-[(7-methylspiro[1-benzofuran-3,1′-cyclopropan]-4-yl)oxy]pyridin-3-yl}-2,4-dihydro-3H-1,2,4-triazol-3-one]
